Test results taken from paper PMC12362587, “Untargeted Diversity-Oriented Synthesis for the Discovery of New Antitumor Agents: An Integrated Approach of Inverse Virtual Screening, Bioinformatics, and Omics for Target Deconvolution” (Journal of Medicinal Chemistry, 2025).

Tests used:
human recombinant CB1R = human recombinant CB1R (Homo sapiens, UniProt P21554); test: Competition binding assay, displacement of [3H]-CP-55,940; conditions: displacement of [3H]-CP-55,940, HEK-293 membranes; read-out: EC50 or IC50, cannabinoid receptor 1
Description: Binding assays at equilibrium were conducted as described in Di Micco et al., 2024. […]. All compounds were evaluated following the manufacturer’s protocol (PerkinElmer distributed by Revvity, Italy). […] The K i values were calculated using the Cheng-Prusoff equation, based on the IC50 values obtained through GraphPad PRISM software (version 10.2.2). The results are expressed as K i (μM), represented as mean ± SEM, and reflect the average of three independent experiments performed in duplicate.

BRD4(BD1) = target: T1, BRD4(BD1) (Homo sapiens, UniProt O60885); test: BRD4 (BD1) Inhibitor Screening Assay Kit (AlphaScreen); assay type: binding; conditions: read-out: EC50 or IC50, bromodomain-containing protein 4
T1 construct: purchased BPS Bioscience (printed as 'BSP') 32514

[1] = target: T2, Poly [ADP-ribose] polymerase tankyrase-1 (Homo sapiens, UniProt O95271); test: TNKS1 (PARP5A) Colorimetric Assay Kit (BPS Bioscience); assay type: biochemical; conditions: top concentration 30 μM; read-out: EC50 or IC50, Poly [ADP-ribose] polymerase tankyrase-1
T2 construct: (TNKS1) enzyme (amino acids 1001–1323; final concentration, 1.5 ng per reaction); purchased BPS Bioscience
Description: The assay was performed in a volume of 50 μL in a 96-well transparent plate. The TNKS1 assay kit (PARP5A; BPS Bioscience, USA) was performed by first coating the 96-well plate with histone proteins, then left at 4 °C overnight. Next, Poly [ADP-ribose] polymerase tankyrase-1 (TNKS1) enzyme (amino acids 1001–1323; final concentration, 1.5 ng per reaction), a mixture of biotinylated NAD^+ (PARP substrate) and compounds were incubated for 1 h at room temperature. The compounds were added at different concentrations in the reaction buffer, starting from a final concentration of 30 μM. Buffer with the same amount of DMSO (1%) was used as a negative control. After incubation, the plate was treated with streptavidin-HRP followed by the addition of the colorimetric HRP substrate generating a colored solution. The generated signal was read at an absorbance of 450 nm using a microplate reader with UV/vis spectrophotometer (Multiskan Go, Thermo Fisher Scientific, Waltham, MA, USA). Experiments were performed in triplicate. IC50 values were calculated with GraphPad Prism 8.0 software by nonlinear dose–response inhibition regression.

[2] = target: T3, serine/threonine-protein kinase B-raf (V600E) (Homo sapiens, UniProt P15056, V600E); test: B-Raf kinase assay (V600E; BPS Bioscience); assay type: biochemical; conditions: top concentration 30 μM, read-out: EC50 or IC50, serine/threonine-protein kinase B-raf
T3 construct: purchased BPS Bioscience
Description: The assay was performed in a volume of 50 μL in a 96-well white plate. The B-Raf kinase assay (V600E; BPS Bioscience, USA) was designed to measure B-Raf kinase activity by the use of Kinase-Glo MAX (Promega, USA), which detects ATP residual following the kinase reaction. For activity measurement, the kinase (final concentration, 2 ng per reaction), Raf substrate and ATP (final concentration, 500 μM), and compounds were incubated for 45 min at 30 °C. The compounds were added at different concentrations in the reaction buffer, starting from a final concentration of 30 μM. Buffer with the same amount of DMSO (1%) was used as a negative control. After the incubation time, Kinase-Glo MAX detection reagent was added for 15 min at room temperature. The generated luminescent signal was read in end point mode using a PerkinElmer AlphaScreen multimodal plate reader (PerkinElmer, Waltham, MA, USA). Experiments were performed in triplicate. IC50 values were calculated with GraphPad Prism 8.0 software by nonlinear dose–response inhibition regression.

[3] = target: T4, Fibroblast Growth Factor Receptor 1 (FGFR1) (Homo sapiens, UniProt P11362); test: Kinase Enzymatic Radiometric [10 uM ATP] KinaseProfiler LeadHunter Assay; assay type: biochemical; conditions: Eurofins, read-out: EC50 or IC50, FGFR1
T4 construct: Eurofins (contract assay)
From the text: (§1) For displacement assays on G-protein coupled receptor 55 (GPR55), Vasopressin V2 receptor (V2R), Adenosine A1 receptor (A1AR), Fibroblast growth factor receptor 1 (FGFR1), Vascular endothelial growth factor receptor 2 (VEGFR2), Platelet-derived growth factor receptor beta (PDGFRB), Vascular endothelial growth factor receptor 1 (VEGFR1), Thromboxane Synthase (TXS) and Phosphodiesterase 10A (PDE10A), we commissioned the Eurofins company which employed its specific experimental methods, accessible at the link: https://www.eurofins.com/.

[4] = target: T5, Platelet-Derived Growth Factor Receptor-Beta (PDGFRB) (Homo sapiens, UniProt P09619); test: as above; assay type: biochemical; conditions: Eurofins, read-out: EC50 or IC50, PDGFRB
T5 construct: Eurofins (contract assay)
From the text: as §1

[5] = target: T6, Vascular Endothelial Growth Factor Receptor (VEGFR-2)/KDR (Homo sapiens, UniProt P35968); test: as above; assay type: biochemical; conditions: Eurofins, read-out: EC50 or IC50, VEGFR-2/KDR
T6 construct: Eurofins (contract assay)
From the text: as §1

[6] = target: T7, Vascular Endothelial Growth Factor Receptor-1 Flt-1 (VEGFR1) (FLT1) (Homo sapiens, UniProt P17948); test: as above; assay type: biochemical; conditions: Eurofins, read-out: EC50 or IC50, VEGFR1 (FLT1)
T7 construct: Eurofins (contract assay)
From the text: as §1

[7] = target: T8, V2 Human Vasopressin/Oxytocin GPCR (Homo sapiens, UniProt P30518); test: Binding Agonist Radioligand LeadHunter Assay; conditions: Eurofins, read-out: EC50 or IC50, V2 Human Vasopressin/Oxytocin GPCR
T8 construct: Eurofins (contract assay)
From the text: as §1

A375 cells = test: Thioflavin T (ThT) protein misfolding assay; assay type: cell-based, human; conditions: 24 h, 31: 10, 5, 2.5 μM, 63: 20, 10, 5 μM
Description: Protein misfolding was analyzed using ThT, (Sigma-Aldrich, St. Louis, MO, USA) staining. A375 cells (5 × 10^3 cells/well) were grown in 96-well plates and allowed to adhere for 24 h. Later the medium was replaced, and cells were treated with compounds (31: 10, 5, and 2.5 μM; 63: 20, 10, and 5 μM), for 24 h. After treatments, the culture medium was replaced, cells washed twice with PBS and then suspended in 100 μL ThT (20 μM). After washing, a staining solution containing 20 μM ThT in PBS was added for 30 min at 37 °C in the dark. The stained cells were washed, and representative images were acquired using ZOE Fluorescent Cell Imaging System (Magnification, 20×). Quantitative analyses were performed reading the fluorescence signals (excitation/emission 450 nm/482 nm) using a PerkinElmer EnSpire multimode plate reader (PerkinElmer, Waltham, MA, USA).

T4 sequence (P11362 22-822): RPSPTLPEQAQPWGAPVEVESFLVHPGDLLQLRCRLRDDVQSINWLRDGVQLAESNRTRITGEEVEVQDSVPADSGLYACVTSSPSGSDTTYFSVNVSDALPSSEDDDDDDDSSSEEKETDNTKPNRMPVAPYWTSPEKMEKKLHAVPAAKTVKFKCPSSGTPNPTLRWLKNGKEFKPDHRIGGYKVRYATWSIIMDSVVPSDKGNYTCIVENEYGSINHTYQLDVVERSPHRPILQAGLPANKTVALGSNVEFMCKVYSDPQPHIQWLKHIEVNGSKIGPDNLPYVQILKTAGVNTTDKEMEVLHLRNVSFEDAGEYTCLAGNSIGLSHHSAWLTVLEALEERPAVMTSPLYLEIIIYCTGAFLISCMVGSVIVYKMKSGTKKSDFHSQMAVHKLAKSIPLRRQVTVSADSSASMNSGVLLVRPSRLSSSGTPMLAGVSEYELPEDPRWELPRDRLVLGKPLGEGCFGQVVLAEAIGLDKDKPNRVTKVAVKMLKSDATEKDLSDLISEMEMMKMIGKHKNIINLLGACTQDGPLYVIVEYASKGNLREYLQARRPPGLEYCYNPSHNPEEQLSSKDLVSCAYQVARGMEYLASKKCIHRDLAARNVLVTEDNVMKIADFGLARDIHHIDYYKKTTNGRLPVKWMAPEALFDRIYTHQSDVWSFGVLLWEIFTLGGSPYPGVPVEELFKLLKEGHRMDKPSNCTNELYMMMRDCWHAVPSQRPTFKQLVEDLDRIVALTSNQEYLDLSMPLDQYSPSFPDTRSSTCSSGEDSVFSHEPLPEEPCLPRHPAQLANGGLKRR
T7 sequence (P17948 27-1338): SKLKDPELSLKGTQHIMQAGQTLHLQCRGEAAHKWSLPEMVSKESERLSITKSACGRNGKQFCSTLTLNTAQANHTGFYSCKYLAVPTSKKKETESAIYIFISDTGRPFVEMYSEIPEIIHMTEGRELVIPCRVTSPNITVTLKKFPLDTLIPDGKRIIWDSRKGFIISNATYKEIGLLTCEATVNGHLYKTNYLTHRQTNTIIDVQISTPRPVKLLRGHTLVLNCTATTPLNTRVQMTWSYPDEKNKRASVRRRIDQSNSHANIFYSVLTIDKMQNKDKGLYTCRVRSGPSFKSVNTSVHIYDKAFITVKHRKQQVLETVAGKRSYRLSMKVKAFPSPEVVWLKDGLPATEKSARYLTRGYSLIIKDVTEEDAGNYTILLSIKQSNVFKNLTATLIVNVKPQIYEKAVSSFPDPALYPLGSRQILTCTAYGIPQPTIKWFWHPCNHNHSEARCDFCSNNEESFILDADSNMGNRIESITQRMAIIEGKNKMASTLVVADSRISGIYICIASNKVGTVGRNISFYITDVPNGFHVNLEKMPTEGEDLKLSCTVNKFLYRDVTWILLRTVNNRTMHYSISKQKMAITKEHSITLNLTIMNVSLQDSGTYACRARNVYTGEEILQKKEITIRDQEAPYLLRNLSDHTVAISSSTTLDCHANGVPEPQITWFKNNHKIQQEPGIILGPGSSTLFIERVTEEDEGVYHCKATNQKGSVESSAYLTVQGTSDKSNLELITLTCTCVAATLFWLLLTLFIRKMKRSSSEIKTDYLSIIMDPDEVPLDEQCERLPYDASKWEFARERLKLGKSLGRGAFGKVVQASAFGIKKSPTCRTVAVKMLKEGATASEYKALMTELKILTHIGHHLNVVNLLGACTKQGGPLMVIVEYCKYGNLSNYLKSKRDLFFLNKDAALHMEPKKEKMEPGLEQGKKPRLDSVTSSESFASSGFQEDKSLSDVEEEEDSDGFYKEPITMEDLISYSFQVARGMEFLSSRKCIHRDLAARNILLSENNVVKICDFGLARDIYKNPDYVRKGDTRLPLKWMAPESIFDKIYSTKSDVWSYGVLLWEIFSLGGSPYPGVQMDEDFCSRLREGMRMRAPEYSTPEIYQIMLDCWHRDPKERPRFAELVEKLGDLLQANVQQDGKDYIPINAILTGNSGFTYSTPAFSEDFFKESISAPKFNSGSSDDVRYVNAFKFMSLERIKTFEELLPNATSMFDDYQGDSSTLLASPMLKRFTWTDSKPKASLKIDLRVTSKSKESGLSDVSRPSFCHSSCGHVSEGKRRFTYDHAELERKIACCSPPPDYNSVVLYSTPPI
T5 sequence (P09619 33-1106): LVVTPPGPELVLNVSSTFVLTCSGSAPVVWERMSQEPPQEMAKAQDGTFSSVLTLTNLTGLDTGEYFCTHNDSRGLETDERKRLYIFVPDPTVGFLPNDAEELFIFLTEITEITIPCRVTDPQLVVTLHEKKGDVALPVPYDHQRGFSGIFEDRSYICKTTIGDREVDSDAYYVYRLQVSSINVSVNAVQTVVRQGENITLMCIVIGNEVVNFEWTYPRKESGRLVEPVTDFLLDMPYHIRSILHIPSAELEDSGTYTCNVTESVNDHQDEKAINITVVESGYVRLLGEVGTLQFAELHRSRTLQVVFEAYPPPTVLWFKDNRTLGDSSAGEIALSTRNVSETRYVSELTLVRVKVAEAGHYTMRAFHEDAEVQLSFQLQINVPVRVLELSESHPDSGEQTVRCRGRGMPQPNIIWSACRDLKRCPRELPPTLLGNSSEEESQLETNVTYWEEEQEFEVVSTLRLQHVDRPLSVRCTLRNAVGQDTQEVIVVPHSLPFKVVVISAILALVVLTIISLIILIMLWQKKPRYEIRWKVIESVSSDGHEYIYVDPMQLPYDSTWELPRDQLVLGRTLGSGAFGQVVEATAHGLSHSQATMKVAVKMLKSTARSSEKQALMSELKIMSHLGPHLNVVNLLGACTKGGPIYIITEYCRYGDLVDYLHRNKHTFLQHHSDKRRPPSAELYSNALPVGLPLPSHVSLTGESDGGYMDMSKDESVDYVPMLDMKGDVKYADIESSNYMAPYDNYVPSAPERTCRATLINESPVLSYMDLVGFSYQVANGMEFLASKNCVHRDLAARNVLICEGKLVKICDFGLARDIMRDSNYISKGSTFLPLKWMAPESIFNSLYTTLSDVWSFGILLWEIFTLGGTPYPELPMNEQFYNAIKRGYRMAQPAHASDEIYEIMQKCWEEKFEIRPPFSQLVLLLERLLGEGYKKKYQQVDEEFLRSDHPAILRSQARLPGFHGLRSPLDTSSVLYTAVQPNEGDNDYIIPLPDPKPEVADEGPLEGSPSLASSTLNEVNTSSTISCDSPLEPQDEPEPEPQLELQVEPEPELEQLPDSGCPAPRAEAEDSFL
T3 sequence (P15056 whole entry V600E): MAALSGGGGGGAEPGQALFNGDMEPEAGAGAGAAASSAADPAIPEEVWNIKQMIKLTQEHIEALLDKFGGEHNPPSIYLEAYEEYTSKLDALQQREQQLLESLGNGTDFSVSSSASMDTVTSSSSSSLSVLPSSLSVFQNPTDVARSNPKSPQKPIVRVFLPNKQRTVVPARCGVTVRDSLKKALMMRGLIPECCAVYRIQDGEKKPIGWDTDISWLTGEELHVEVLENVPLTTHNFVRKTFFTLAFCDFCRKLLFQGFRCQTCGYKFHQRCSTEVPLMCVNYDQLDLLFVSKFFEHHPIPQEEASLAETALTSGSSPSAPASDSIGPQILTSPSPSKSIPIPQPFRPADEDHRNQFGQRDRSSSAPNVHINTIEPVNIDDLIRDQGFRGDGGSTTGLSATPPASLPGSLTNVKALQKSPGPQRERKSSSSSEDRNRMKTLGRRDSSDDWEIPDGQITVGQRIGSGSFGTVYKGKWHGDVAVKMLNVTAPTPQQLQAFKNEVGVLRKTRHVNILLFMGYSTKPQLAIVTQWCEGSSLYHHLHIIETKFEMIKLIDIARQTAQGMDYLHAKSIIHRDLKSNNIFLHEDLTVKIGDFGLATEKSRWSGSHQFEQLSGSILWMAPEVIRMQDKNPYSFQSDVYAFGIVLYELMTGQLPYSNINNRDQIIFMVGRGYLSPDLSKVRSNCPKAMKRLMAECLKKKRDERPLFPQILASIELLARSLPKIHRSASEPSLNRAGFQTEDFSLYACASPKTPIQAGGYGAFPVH
human recombinant CB1R, sequence (P21554 whole entry): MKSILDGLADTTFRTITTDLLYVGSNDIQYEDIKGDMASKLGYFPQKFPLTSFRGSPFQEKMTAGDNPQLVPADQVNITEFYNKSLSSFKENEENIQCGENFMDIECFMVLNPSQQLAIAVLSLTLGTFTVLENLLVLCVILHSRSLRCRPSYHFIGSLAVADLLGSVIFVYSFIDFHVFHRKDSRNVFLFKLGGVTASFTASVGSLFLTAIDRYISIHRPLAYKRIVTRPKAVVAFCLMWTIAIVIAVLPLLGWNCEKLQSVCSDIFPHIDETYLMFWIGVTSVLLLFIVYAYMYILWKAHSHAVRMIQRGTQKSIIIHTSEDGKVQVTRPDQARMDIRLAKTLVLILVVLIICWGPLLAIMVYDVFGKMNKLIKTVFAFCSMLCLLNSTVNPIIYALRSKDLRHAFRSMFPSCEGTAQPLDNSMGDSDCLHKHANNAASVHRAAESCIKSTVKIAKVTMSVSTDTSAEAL
T8 sequence (P30518 whole entry): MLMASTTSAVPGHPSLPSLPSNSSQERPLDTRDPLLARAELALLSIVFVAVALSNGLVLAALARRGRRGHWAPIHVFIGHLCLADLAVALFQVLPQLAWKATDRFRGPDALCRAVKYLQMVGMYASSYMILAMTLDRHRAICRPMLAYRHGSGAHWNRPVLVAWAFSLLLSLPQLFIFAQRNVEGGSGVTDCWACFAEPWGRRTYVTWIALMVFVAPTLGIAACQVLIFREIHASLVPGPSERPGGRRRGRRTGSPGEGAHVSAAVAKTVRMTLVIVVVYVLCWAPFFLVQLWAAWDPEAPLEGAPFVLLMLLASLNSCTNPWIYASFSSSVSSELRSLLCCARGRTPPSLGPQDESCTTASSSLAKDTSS

IC50 (human recombinant CB1R) | IC50 (BRD4(BD1)) | IC50 [1] | IC50 [2] | IC50 [3] | IC50 [4] | IC50 [5] | IC50 [6] | IC50 [7] | SMILES | misfolded protein levels (ThT fluorescence) (A375 cells)
> 30 µM | 1.19 ± 0.29 µM | > 30 µM | ≥ 30 µM | ≥ 30 µM | ≥ 30 µM | ≥ 30 µM | ≥ 30 µM | ≥ 30 µM | CC(C)C[C@H]1C(=O)N(Cc2ccc(C(F)(F)F)cc2)c2ccccc2C(=O)N1Cc1ccc(C(F)(F)F)cc1 [Compound 31, (S)-3-Isobutyl-1,4-bis(4-(trifluoromethyl)benzyl)-3,4-dihydro-1H-benzo[e][1,4]diazepine-2,5-dione] | maximum accumulation of misfolded proteins even at 10 μM
> 30 µM | 0.11 ± 0.09 µM | > 30 µM | ≥ 30 µM | ≥ 30 µM | ≥ 30 µM | ≥ 30 µM | ≥ 30 µM | ≥ 30 µM | CC(C)C[C@@H](C(=O)OCc1ccccc1)N1Cc2ccccc2NC1=O [Compound 63, Benzyl (S)-4-Methyl-2-(2-oxo-1,4-dihydroquinazolin-3(2H)-yl)pentanoate] | greatest increase in fluorescence at 20 μM
